{"source": "patent US20230312643A1", "about": "“PEPTIDE DERIVATIVE WITH COLLAGENASE INHIBITORY ACTIVITY, AND USE THEREOF” (SUNMARINE BIOTECH, priority 2020, published 2023)", "key": {"[1]": {"experiment": "HaCaT cytotoxicity test (MTS cell viability)", "format": "cell-based", "conditions": "human, HaCaT cells (skin epidermal cells)", "experimental": "HaCaT cells, skin epidermal cells (derived from human), were used. The medium was DMEM low (SH30021.01, HyClone™, Logan, UT, USA) medium containing 10% fetal bovine serum (FBS, Lonza, Valais, Switzerland) medium. The cell lines were cultured in an incubator adjusted to 95% humidity, 5% CO2 and 37° C., and at this time, a medium antibiotic (Penicillin streptomycin, Gibco, Calif., USA) was used to suppress contamination or proliferation of microorganisms. When the cells covered the dish about 80%, the cells were washed with phosphated-buffered saline-EDTA (PBS-EDTA), and then the cells attached to the bottom of the dish were detached by treating with 1 ml of 0.05% trypsin EDTA, and subjected to subculture. The medium was exchanged every 48 hours to culture the cells.\nCell viability was measured using MTS (CellTiter 96® AQueous One Solution Cell Proliferation Assay, Promega, USA) reagent. The cells were divided at a concentration of 1×10^4 cells/well in a 96-well plate and then stabilized for 24 hours in an incubator controlled to 95% humidity, 5% CO2 and 37° C. After that, the samples were treated for each concentration (table 1) and cultured for 24 hours in an incubator controlled to 95% humidity, 5% CO2 and 37° C. After the medium was removed, 9 ml of medium (DMEM low, free FBS) was added to 1 ml of the reagent and diluted, and then 100 ul of the diluted solution was treated per well. After the reaction at 37° C. for 60 minutes, absorbance was measured at 490 nm with microplate reader (Molecular Devices, VersaMax ELISA Microplate Reader, USA). Cell viability was represented by absorbance of a sample-treated group compared to a control group not treated with the sample."}, "[2]": {"target": "T1, MMP1 protein (pdb1cgl) (Homo sapiens, UniProt P03956)", "T1 sequence (P03956 101-269 limits assumed)": "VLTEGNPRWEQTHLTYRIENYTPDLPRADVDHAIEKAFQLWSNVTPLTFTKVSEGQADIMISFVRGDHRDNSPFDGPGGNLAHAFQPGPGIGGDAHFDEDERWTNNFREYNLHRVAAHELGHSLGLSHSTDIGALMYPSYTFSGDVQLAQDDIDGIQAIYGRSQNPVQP", "experiment": "Molecular docking (SYBYL-X 2.1.1, Surflex-Dock 2.7) of binding affinity to collagenase", "conditions": "from Surflex-Dock total score", "experimental": "Molecular modeling was conducted through a computer simulation program.\nTarget structure: MMP1 protein (pdb1cgl)\nSoftware: SYBYL-X 2.1.1, Surflex-Dock2.7\nThrough a computer simulation program, a study was conducted on how to promote collagenase enzyme inhibitory activity and percutaneous absorption during peptide modification.\nTotal score is a value indicating the degree of binding affinity of a docked structure including a crash and a polar interaction in the unit of pKd, and the larger the value, the higher the binding affinity. And, the similarity is a value comparing the similarity with the structure already bonded to the 1cgl, and means that the closer to 1, the more similar. The result of such docking means that the addition of an appropriate modification residue through a docking simulation of computer chemistry may increase the binding affinity and similarity.\nHowever, when compared with the overall consensus score, a binding affinity similar to or higher than that of pdb1cgl_ligand may be expected, particularly in the modified GPN and PGN, too."}, "[3]": {"experiment": "HS68 cytotoxicity test (MTS cell viability)", "format": "cell-based", "conditions": "human, HS68 cells (skin fibroblasts)", "experimental": "Skin fibroblast HS68 cells were used. The medium was DMEM high glucose (SH30243.01, HyClone™, Logan, UT, USA) medium containing 10% fetal bovine serum (FBS, Lonza, Valais, Switzerland) medium. The cell lines were cultured in an incubator adjusted to 95% humidity, 5% CO2 and 37° C., and at this time, a medium antibiotic (Penicillin streptomycin, Gibco, Calif., USA) was used to suppress contamination or proliferation of microorganisms.\nCell viability was measured using MTS (CellTiter 96® AQueous One Solution Cell Proliferation Assay, Promega, USA) reagent. The cells were divided at a concentration of 1×10^4 cells/well in a 96-well plate and then stabilized for 24 hours in an incubator controlled to 95% humidity, 5% CO2 and 37° C. After that, the samples were treated for each concentration and cultured for 24 hours in an incubator controlled to 95% j humidity, 5% CO2 and 37° C. After the medium was removed, 9 ml of medium (DMEM high, free FBS) was added to 1 ml of the reagent and diluted, and then 100 ul of the diluted solution was treated per well. After the reaction at 37° C. for 60 minutes, absorbance was measured at 490 nm with microplate reader (Molecular Devices, VersaMax ELISA Microplate Reader, USA). Cell viability was represented by absorbance of a sample-treated group compared to a control group not treated with the sample."}, "[4]": {"target": "T2, elastase (Sus scrofa, UniProt P00772)", "T2 construct": "purchased Invitrogen", "T2 sequence (P00772 27-266)": "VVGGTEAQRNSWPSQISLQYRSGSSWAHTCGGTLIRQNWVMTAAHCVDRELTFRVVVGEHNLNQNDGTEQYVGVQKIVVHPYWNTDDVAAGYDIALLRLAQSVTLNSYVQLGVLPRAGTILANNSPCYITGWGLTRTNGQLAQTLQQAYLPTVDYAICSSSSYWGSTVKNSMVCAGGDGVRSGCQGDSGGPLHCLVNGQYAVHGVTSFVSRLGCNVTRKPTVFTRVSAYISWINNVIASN", "experiment": "Elastase inhibitory activity (EnzChek Elastase Assay Kit, DQ elastin)", "format": "biochemical", "experimental": "Elastase inhibitory activity was performed by purchasing EnzChek® Elastase Assay Kit (600 Assays) reagent from Invitrogen. First, DQ elastin stock solution (1 mg/ml) was prepared by adding 1.0 ml of DDW to 1 mg DQ elastin vial. The 18 ml of DDW was added to 2 ml of 10× reaction buffer, so as to dilute reaction buffer. Then, an elastase enzyme reagent was prepared, and diluted with reaction buffer to a final concentration of 0.2 U/ml as working solution. Three samples of 50 ? each were prepared in a 96-well plate. The 50 ? of reaction buffer was added to 50 ? of DQ elastin and sample blank, and 50 ? of working solution was added to a sample, which were then left in a light-blocked state at room temperature for about one hour, and then fluorescence intensity was measured at excitation wavelength 505 nm and emission wavelength 515 nm using ELISA plate reader (VICTOR X3™, PerkinElmer, US).\nCopper peptide (Comparative Example 12) and EGCg (Comparative Example 13), which is widely used as a raw material for functional cosmetics, were prepared at the same concentration and used as a positive control.\nEGCg (epigallocatechin gallate) is a kind of polyphenol, which is an extract of green tea leaves, and is used as a cosmetic raw material for anti-oxidation, inflammation reduction, and wrinkle alleviation, and Copper peptide is used as a raw material for promoting wound healing, strengthening skin elasticity, and increasing subcutaneous fat layer to suppress skin aging due to excellent skin regeneration ability."}}}
{"smiles": "NC(=O)C[C@H](NC(=O)CNC(=O)[C@@H]1CCCN1)C(=O)O", "note": "[PGN, Pro-Gly-Asn, reference compound]", "values": [{"measurement": "viability at 24 h, 1 µg/mL", "setting": "[1]; 1 μg/ml", "result": "118 ± 3.1", "unit": "%"}, {"measurement": "viability at 24 h, 10 µg/mL", "setting": "[1]; 10 μg/ml", "result": "129 ± 2.8", "unit": "%"}, {"measurement": "viability at 24 h, 50 µg/mL", "setting": "[1]; 50 μg/ml", "result": "125 ± 7.6", "unit": "%"}, {"measurement": "viability at 24 h, 100 µg/mL", "setting": "[1]; 100 μg/ml", "result": "128 ± 4.1", "unit": "%"}, {"measurement": "binding affinity compared to 1cgl ligand", "setting": "[2]", "result": "~61.5", "unit": "%"}, {"measurement": "viability at 24 h, 1 µg/mL", "setting": "[3]; HS68, 1 μg/ml", "result": "104 ± 3.9", "unit": "%"}, {"measurement": "viability at 24 h, 10 µg/mL", "setting": "[3]; HS68, 10 μg/ml", "result": "117 ± 11.5", "unit": "%"}, {"measurement": "viability at 24 h, 50 µg/mL", "setting": "[3]; HS68, 50 μg/ml", "result": "128 ± 2.2", "unit": "%"}, {"measurement": "viability at 24 h, 100 µg/mL", "setting": "[3]; HS68, 100 μg/ml", "result": "130.1 ± 0.1", "unit": "%"}, {"measurement": "inhibition at 20 µg/mL", "setting": "[4]; 0.02 mg/ml", "result": "1.8 ± 0.6", "unit": "%"}, {"measurement": "inhibition at 40 µg/mL", "setting": "[4]; 0.04 mg/ml", "result": "2.8 ± 1.2", "unit": "%"}, {"measurement": "inhibition at 60 µg/mL", "setting": "[4]; 0.06 mg/ml", "result": "6.1 ± 1.9", "unit": "%"}, {"measurement": "inhibition at 100 µg/mL", "setting": "[4]; 0.1 mg/ml", "result": "7.5 ± 3.2", "unit": "%"}, {"measurement": "inhibition at 1000 µg/mL", "setting": "[4]; 1 mg/ml", "result": 7.5, "unit": "%"}, {"measurement": "IC50", "setting": "[4]; FIGS. 8 and 9", "result": 384, "unit": "µM"}]}
